Broadly, the IC50 is the midpoint of a concentration-inhibition curve. One may read the Ki as the equilibrium dissociation constant of an inhibitor or competing ligand from its target.

Molecules are shown by their SMILES.

Our source for the IC50 and Ki values is ChEMBL document CHEMBL1909046, “DrugMatrix in vitro pharmacology data”.

A short description of test [1]: DRUGMATRIX: Imidazoline I2, Central radioligand binding (ligand: [3H] Idazoxan). Format: cell membranes, Rattus norvegicus, Wistar, Cerebral cortex, Membrane. The conditions noted are these: Not Active = under 50% inhibition at 10 µM.
A short description of test [2]: DRUGMATRIX: GABAA, Muscimol, Central radioligand binding (ligand: [3H] Muscimol). It is filed as cell membranes, Rattus norvegicus, Wistar, Brain, Membrane. The conditions noted are these: Not Active = under 50% inhibition at 10 µM.
Test [3] addresses Vascular endothelial growth factor receptor 1 (Homo sapiens, UniProt P17948). The test is described as follows: biochemical. It is filed as cell-based, HUVEC. Particulars: huvec.
In test [4] the target is T1, Alpha-2A adrenergic receptor (Homo sapiens, UniProt P08913). Also: in other assays of this panel Not Active means under 50% inhibition at 10 µM.
T1 sequence (P08913 whole entry): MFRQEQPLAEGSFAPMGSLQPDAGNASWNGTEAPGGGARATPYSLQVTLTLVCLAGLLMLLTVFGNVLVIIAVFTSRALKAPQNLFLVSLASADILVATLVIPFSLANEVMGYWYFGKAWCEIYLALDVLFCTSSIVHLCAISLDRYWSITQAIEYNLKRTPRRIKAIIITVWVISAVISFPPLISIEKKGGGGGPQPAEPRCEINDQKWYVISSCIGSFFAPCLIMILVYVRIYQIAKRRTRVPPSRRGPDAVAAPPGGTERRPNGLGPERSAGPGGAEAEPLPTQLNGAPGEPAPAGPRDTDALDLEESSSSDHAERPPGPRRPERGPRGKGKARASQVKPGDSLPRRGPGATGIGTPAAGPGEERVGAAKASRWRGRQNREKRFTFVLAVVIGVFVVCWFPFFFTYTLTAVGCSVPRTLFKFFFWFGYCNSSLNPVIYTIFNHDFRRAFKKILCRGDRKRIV
Format: cell membranes, Sf9, Membrane. The conditions noted are these: for Ki: read-out: Ki.

Test [5] deals with T2, Alpha-2C adrenergic receptor (Homo sapiens, UniProt P18825).
T2 sequence (P18825 whole entry): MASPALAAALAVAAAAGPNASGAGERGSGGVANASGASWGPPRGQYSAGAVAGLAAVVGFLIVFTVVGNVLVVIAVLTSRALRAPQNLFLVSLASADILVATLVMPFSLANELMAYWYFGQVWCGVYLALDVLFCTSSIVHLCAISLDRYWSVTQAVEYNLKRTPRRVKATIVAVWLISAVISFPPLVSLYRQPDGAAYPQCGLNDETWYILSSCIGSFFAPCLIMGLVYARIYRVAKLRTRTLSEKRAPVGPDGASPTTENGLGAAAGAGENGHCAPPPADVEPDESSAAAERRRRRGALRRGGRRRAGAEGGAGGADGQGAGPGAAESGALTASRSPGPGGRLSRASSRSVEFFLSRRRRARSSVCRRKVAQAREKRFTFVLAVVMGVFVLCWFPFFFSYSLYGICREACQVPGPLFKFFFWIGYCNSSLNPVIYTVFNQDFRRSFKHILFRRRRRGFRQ
Nature of the test: DRUGMATRIX: Adrenergic Alpha-2C radioligand binding (ligand: [3H] MK-912). It is filed as cell membranes, Sf9, Membrane. Particulars: sf9.

Sequence of Vascular endothelial growth factor receptor 1 (P17948 whole entry): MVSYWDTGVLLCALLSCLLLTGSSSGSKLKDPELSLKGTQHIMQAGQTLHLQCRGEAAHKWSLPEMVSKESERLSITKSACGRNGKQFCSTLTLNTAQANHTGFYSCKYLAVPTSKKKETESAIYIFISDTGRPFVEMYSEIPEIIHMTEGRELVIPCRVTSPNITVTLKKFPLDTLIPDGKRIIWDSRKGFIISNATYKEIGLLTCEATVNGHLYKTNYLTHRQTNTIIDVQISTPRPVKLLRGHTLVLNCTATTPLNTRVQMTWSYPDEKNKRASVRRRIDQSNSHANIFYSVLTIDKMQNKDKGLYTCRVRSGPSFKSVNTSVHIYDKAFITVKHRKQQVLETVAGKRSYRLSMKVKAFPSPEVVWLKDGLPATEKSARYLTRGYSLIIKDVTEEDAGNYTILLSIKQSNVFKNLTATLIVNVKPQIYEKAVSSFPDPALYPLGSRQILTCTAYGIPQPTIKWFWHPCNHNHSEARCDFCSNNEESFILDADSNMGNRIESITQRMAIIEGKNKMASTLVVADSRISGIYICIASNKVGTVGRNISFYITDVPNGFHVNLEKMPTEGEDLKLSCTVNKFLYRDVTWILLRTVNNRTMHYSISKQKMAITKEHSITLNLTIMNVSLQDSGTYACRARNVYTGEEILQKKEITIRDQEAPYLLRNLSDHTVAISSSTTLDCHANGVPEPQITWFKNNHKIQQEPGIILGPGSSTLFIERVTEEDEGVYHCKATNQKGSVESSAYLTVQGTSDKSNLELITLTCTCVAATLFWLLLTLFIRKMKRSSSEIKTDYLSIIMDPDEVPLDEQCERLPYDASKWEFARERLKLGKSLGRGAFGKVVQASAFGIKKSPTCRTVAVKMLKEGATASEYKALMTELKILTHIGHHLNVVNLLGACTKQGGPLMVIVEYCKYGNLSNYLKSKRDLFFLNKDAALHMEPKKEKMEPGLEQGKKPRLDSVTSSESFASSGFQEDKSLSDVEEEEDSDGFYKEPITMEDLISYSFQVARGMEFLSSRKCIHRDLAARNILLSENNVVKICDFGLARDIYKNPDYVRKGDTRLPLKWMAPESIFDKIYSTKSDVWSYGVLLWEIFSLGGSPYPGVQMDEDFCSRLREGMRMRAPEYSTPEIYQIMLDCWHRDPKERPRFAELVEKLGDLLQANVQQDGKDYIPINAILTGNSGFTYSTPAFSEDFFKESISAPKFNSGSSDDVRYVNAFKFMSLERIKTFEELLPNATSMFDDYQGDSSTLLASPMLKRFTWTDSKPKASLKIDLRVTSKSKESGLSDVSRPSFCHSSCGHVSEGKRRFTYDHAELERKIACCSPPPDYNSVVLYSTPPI

For the compound `COc1cc(N)nc2[nH]c(-c3ccc(F)cc3)c(-c3ccncc3)c12`, the IC50 result in test [1], in test [2], in test [3], in test [4] (sf9) and in test [5] was “Not Active” in each case. For the same compound, the Ki entry in test [1] and in test [2] was “Not Active” each time.

`CNS(=O)(=O)Cc1ccc2[nH]cc(CCN(C)C)c2c1`: the IC50 entry in test [1], in test [2], in test [3], in test [4] (sf9) and in test [5] was “Not Active” throughout. Further, the Ki entry in test [1] and in test [2] was “Not Active” each time.

Turning to `CCCc1nn(C)c2c(=O)[nH]c(-c3cc(S(=O)(=O)N4CCN(C)CC4)ccc3OCC)nc12`, the IC50 entry in test [1], in test [2], in test [3], in test [4] (sf9) and in test [5] was “Not Active” throughout. Also, the inhibition constant Ki result in test [1] and in test [2] was “Not Active” in each case.

`COc1ccc(/C=C/C(=O)Nc2ccccc2C(=O)O)cc1OC`: the IC50 entry in test [1], in test [2], in test [3], in test [4] (sf9) and in test [5] was “Not Active” in each case. The Ki entry in test [1] and in test [2] was “Not Active” in each case.

Regarding `CCOC(N)=O`, the IC50 entry in test [1], in test [2], in test [3], in test [4] (sf9) and in test [5] was “Not Active” in each case. Further, the Ki entry in test [1] and in test [2] was “Not Active” throughout.

With `CC(=O)Nc1nnc(S(N)(=O)=O)s1` [ACETAZOLAMIDE], the IC50 entry in test [3], in test [4] (sf9) and in test [5] was “Not Active” in each case.

As for `O=c1[nH]c2ccccc2n1CCCN1CCC(n2c(=O)[nH]c3cc(Cl)ccc32)CC1` [DOMPERIDONE], in test [3], the IC50 result is given as “Not Active”.

Take `CC1=C(CC(=O)O)c2cc(F)ccc2/C1=C\c1ccc(S(C)(=O)=O)cc1` [EXISULIND]: the IC50 entry in test [1], in test [2], in test [3], in test [4] (sf9) and in test [5] was “Not Active” throughout. In addition, the Ki result in test [1] and in test [2] was “Not Active” each time.

Take `CC(C)OC(=O)C(C)(C)Oc1ccc(C(=O)c2ccc(Cl)cc2)cc1` [FENOFIBRATE]: the IC50 result in test [3], in test [4] (sf9) and in test [5] was “Not Active” throughout.

In the case of `OCCN1CCN(CCCN2c3ccccc3Sc3ccc(C(F)(F)F)cc32)CC1` [FLUPHENAZINE], the IC50 entry was “Not Active” in test [3] and 215 nM in test [4] (read-out: IC50). In addition, the inhibition constant Ki in test [4] came out at 80 nM.

For the compound `CN1C2CCCC1CC(NC(=O)c1nn(C)c3ccccc13)C2` (stereo not given) [GRANISETRON], the IC50 result in test [3], in test [4] (sf9) and in test [5] was “Not Active” in each case.

`Nc1nc2c(c(=O)[nH]1)N(C=O)C(CNc1ccc(C(=O)N[C@@H](CCC(=O)O)C(=O)O)cc1)CN2` (stereo not given in full) [LEUCOVORIN]: the concentration for half-maximal inhibition (IC50) result in test [1], in test [2], in test [3], in test [4] (sf9) and in test [5] was “Not Active” in each case. The Ki result in test [1] and in test [2] was “Not Active” throughout.

Regarding `C[C@@H](O)[C@H]1C(=O)N2C(C(=O)O)=C(S[C@@H]3CN[C@H](C(=O)N(C)C)C3)[C@H](C)[C@H]12` [MEROPENEM], the IC50 result in test [1], in test [2], in test [3], in test [4] (sf9) and in test [5] was “Not Active” in each case. For the same compound, the Ki entry in test [1] and in test [2] was “Not Active” in each case.

For the compound `CC[C@@H](CO)NC(=O)[C@@H]1C=C2c3cccc4c3c(cn4C)C[C@H]2N(C)C1` [METHYSERGIDE], the IC50 result in test [3] is “Not Active”; in test [4] (read-out: IC50), 1630 nM; in test [5], “Not Active”. In test [4], the Ki was 611 nM.

For the compound `CCN(CC)CC#CCOC(=O)C(O)(c1ccccc1)C1CCCCC1` (stereo not given) [OXYBUTYNIN], the IC50 result in test [3], in test [4] (sf9) and in test [5] was “Not Active” each time.

For `O=P(O)(O)C(O)(Cc1cccnc1)P(=O)(O)O` [RISEDRONIC ACID], the IC50 result in test [1], in test [2], in test [3], in test [4] (sf9) and in test [5] was “Not Active” in each case. For the same compound, the Ki result in test [1] and in test [2] was “Not Active” throughout.

For `CN(CCOc1ccc(CC2SC(=O)NC2=O)cc1)c1ccccn1` (stereo not given) [ROSIGLITAZONE], the IC50 result in test [1], in test [2], in test [3], in test [4] (sf9) and in test [5] was “Not Active” throughout. The Ki entry in test [1] and in test [2] was “Not Active” throughout.

As for `C=C(C)[C@H]1Cc2c(ccc3c2O[C@@H]2COc4cc(OC)c(OC)cc4[C@@H]2C3=O)O1` [ROTENONE], the IC50 result in test [1], in test [2], in test [3], in test [4] (sf9) and in test [5] was “Not Active” throughout. Also, the Ki entry in test [1] and in test [2] was “Not Active” throughout.

For the compound `C#CCN(C)[C@H](C)Cc1ccccc1` [SELEGILINE], the IC50 in test [1] (read-out: IC50) was 1610 nM; in test [2], “Not Active”; in test [3] it was “Not Active”; in test [4] (read-out: IC50), 1800 nM; in test [5], “Not Active”. Further, the Ki is 1080 nM in test [1] (read-out: Ki), “Not Active” in test [2] and 674 nM in test [4].

Consider `CO[C@H]1C[C@@H]2CC[C@@H](C)[C@@](O)(O2)C(=O)C(=O)N2CCCC[C@H]2C(=O)O[C@H]([C@H](C)C[C@@H]2CC[C@@H](O)[C@H](OC)C2)CC(=O)[C@H](C)/C=C(\C)[C@@H](O)[C@@H](OC)C(=O)[C@H](C)C[C@H](C)/C=C/C=C/C=C/1C` [SIROLIMUS], for which the IC50 result in test [1], in test [2], in test [3], in test [4] (sf9) and in test [5] was “Not Active” throughout. In addition, the Ki entry in test [1] and in test [2] was “Not Active” each time.

Consider `CN[C@@H]1[C@H](O)[C@H](NC)[C@H]2O[C@@]3(O)C(=O)C[C@@H](C)O[C@H]3O[C@@H]2[C@H]1O` [SPECTINOMYCIN], for which the IC50 entry in test [1], in test [2], in test [3], in test [4] (sf9) and in test [5] was “Not Active” in each case. Also, the Ki entry in test [1] and in test [2] was “Not Active” throughout.

Regarding `Nc1ccc(S(=O)(=O)Nc2ncccn2)cc1` [SULFADIAZINE], the IC50 entry in test [1], in test [2], in test [3], in test [4] (sf9) and in test [5] was “Not Active” throughout. In addition, the Ki result in test [1] and in test [2] was “Not Active” in each case.

On to `COc1ncnc(NS(=O)(=O)c2ccc(N)cc2)c1OC` [SULFADOXINE], for which the half-maximal inhibitory concentration (IC50) result in test [1], in test [2], in test [3], in test [4] (sf9) and in test [5] was “Not Active” each time. Moreover, the Ki entry in test [1] and in test [2] was “Not Active” each time.

For the compound `Nc1ccc(S(=O)(=O)Nc2nccs2)cc1` [SULFATHIAZOLE], the IC50 entry in test [1], in test [2], in test [3], in test [4] (sf9) and in test [5] was “Not Active” throughout. Besides, the inhibition constant Ki result in test [1] and in test [2] was “Not Active” in each case.

Turning to `C[C@]12CC[C@H]3[C@@H](CCC4=CC(=O)CC[C@@]43C)[C@@H]1CC[C@@H]2O` [TESTOSTERONE], the IC50 result in test [1], in test [2], in test [3], in test [4] (sf9) and in test [5] was “Not Active” in each case. For the same compound, the Ki entry in test [1] and in test [2] was “Not Active” throughout.

As for `CC(C)(C)NC[C@H](O)COc1nsnc1N1CCOCC1` [TIMOLOL], the IC50 entry in test [1], in test [2], in test [3], in test [4] (sf9) and in test [5] was “Not Active” in each case. In addition, the Ki result in test [1] and in test [2] was “Not Active” throughout.

As to `O=c1n(CCCN2CCN(c3cccc(Cl)c3)CC2)nc2ccccn12` [TRAZODONE], the IC50 entry in test [3] is “Not Active”.
